Source: patent US20170176446A1, “Methods for Determining the Oncogenic Condition of Cell, Uses Thereof, and Methods for Treating Cancer” (INSERM (INSTITUT NATIONAL DE LA SANTE ET DE LA RECHERCHE …, priority 2009, published 2017)

Tests used:
MCF7 cells = experiment: OCDO production by MCF7 cells incubated with [14C]CE, thin-layer chromatography; type: cell-based, human
Source text: For assays 1 to 5 and in some of the examples given later in this patent application, MCF7 tumor cells, which originate from the American Tissue Culture Collection (ATCC), were used. […] It is desired to study the activity of ChEH in […] cells by silica thin-layer chromatography. The compounds that it is desired to visualize are the CE and CT compounds defined above. In order to visualize the spots corresponding to CE and CT on a chromatography plate, ^14C-labeled CE and CT compounds were synthesized.
In order to be used in assays 1 to 5 which follow, the cells are seeded into 6-well plates at a density of 80 000 cells in a volume of 2 ml. […] After the incubation time desired for the assay, the medium is collected, the cells are washed with cold PBS (phosphate buffer) (2 ml per well) which is pooled with the medium. The cells are then scraped into cold PBS (1 ml for 3 wells); the wells are again rinsed with cold PBS (1 ml for 3 wells). The cell suspension obtained is centrifuged at 1000 rpm for 5 min at 4° C. […] Throughout the rest of this description, the vehicle solvent used is the same as that defined above.
The aqueous and organic radioactivities are counted. The organic phases are brought to dryness under argon. The residue is resuspended in 60 μl of ethanol and then deposited, in a proportion of 20 μl per lane, on to the glass-backed silica plates (Whatman LK-6-DF, 20×20), which are used in the various assays (these plates having been preheated at 100° C. for 1 hour). The migration solvent used is ethyl acetate. The chromatography plates are placed in contact with a “phosphor-screen” plate in a cassette overnight. […] In order to evaluate the more or less dense nature of the spots obtained on the plates, the radioactivity is quantified by densitometry with the “Imagequant”™ computer program.
Generally, in order to establish the percentages of OCDO inhibition from the thin-layer chromatography (TLC) plates obtained as in assay 2, the radioactive metabolites are identified and quantified on the basis of said plates using a europium-sensitive plate of GP Phosphor screen type (GE Healthcare) and a Storm 840 phosphorimagor (GE Healthcare). The proportion of radiolabeled oxysterols is determined on the autoradiogram obtained by densitometry using the Image Quant 5.2 software. The percentage is calculated on the basis of the ratio between the amount of oxysterols quantified divided by the sum of the amounts of oxysterols (CEE+CE+CT+OCDO). Since the CEE (CE ester) originates exclusively from the CE, the percentage CE is calculated on the basis of the ratio (CE+CEE)/(CE+CEE+CT+OCDO).
Assay 2 given above was therefore completed by measuring the amounts of the products present when the MCF7 tumor cells are incubated as indicated in detail in assay 2.
In order to establish that the link that exists between, on the one hand, the ability of various compounds to inhibit OCDO in an MCF7 tumor cell and, on the other hand, their quality as a ChEH inhibitor, is well-founded, the inhibition coefficients Ki for ChEH relating to a certain number of products was calculated and the production of OCDO by MCF7 cells after incubation of the cells with the same products was measured according to the protocol defined in assay 2 of the present patent application.

ChEH [1] = molecular target: T1, ChEH (Homo sapiens, UniProt Q15125); experiment: Inhibition of ChEH activity in MCF7 cells (TLC of [14C]CE conversion); type: cell-based; conditions: tamoxifen 0.01-5 μM with [14C]CEα; PBPE 0.01-10 μM with [14C]CEβ
T1 construct: MCF7 tumor cells, which originate from the American Tissue Culture Collection (ATCC), were used; host or cells: MCF7
T1 sequence (Q15125 whole entry): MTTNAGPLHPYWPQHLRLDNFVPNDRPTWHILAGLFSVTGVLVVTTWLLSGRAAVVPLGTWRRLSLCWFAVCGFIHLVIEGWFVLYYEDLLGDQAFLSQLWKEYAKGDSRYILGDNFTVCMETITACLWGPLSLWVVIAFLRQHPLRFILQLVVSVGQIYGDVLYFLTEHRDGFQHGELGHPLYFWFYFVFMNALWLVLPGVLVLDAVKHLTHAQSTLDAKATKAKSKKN
Experimental: For this experiment, an aminoalkyl sterol included in French patent 2 838 741 (and also see: de Medina et al., J Med Chem: 2009, vol. 52, No. 23, p. 7765-7777), having the formula: 6-N-[2-(3H-imidazol-4-yl)ethylamino]cholestane-3β,5α-diol (DDA), was chosen. […]
A thin-layer chromatography was carried out, the plate of which has been reproduced in FIG. 23. On this plate, the incubation is carried out, for lane 1, with [^14C]CE; for lane 2, with [^14C]CT; for lane 3, with the vehicle solvent, which is the same as that used for assays 1 to 5; for lane 4, with [14C]CE and 0.1 μM of the aminoalkyl sterol; and for lane 5, with [^14C]CE and a concentration of 1 μM of the aminoalkyl sterol.

ChEH [2] = molecular target: T2, ChEH (Mus musculus, UniProt P70245); experiment: Conversion of [14C]CEα in cells of healthy mouse tissues with or without tamoxifen; type: cell-based; conditions: incubation with tamoxifen
T2 construct: evaluated in cells of various healthy mouse tissues; from tissue; host or cells: cells from various healthy mouse organs
T2 sequence (P70245 whole entry): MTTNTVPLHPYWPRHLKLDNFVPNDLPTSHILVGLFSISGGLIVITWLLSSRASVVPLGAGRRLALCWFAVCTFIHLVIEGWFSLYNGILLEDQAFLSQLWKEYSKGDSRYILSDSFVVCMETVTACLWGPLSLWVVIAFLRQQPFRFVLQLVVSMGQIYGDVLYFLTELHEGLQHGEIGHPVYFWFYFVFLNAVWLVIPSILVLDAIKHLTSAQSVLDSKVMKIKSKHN

TS/A cells = experiment: Tumor size of TS/A tumors implanted in BALB/c mice, intratumoral treatment; type: in vivo; conditions: for Tumor size (% control): tamoxifen 10 μM, 100 μl intratumorally once a day
Experimental: A cell culture of TS/A cells was first performed. These TS/A cells are mouse mammary adenocarcinomas (see Nanni P et al., Clin. Exp. Metastasis, 1983 October-December; 1(4): 373-80). The cells are cultured, at 37° C. under 5% CO2, in a DMEM medium supplemented with 2 g/liter of sodium carbonate, 1.2 mM of glutamine (pH 7.4 at 23° C.), 5% of fetal bovine serum (Gibco) and 2.5 ml of antibiotics per liter of medium (penicillin/streptomycin).
The TS/A cells are recovered with trypsin, washed twice and suspended in PBS buffer. The TS/A cells (approximately 4×10^6 […] cells/0.1 ml) are then injected subcutaneously into the flank of 6-week-old female BALB/c mice (supplied by Charles River). […] The animals (10 mice per group) are monitored regularly for tumor development. The volume of the tumors is calculated according to the following formula: L×l^2×0.5 (L is the length and l is the width of the tumor). The experiment was reproduced twice. The results are given in FIG. 18 (the arrow indicates the beginning of the treatment).

OCDO = OCDO content of TS/A tumors by GC/MS; type: in vivo, mice; conditions: tamoxifen 10 μM, 100 μl intratumorally once a day
Experimental: 5 volumes (relative to the mass removed) of buffer (50 mM Tris-HCl, 150 mM KCl, pH=7.4) are added. The tumors are ground and the homogenates are centrifuged for 5 minutes at 2500 rpm at 4° C. […] After centrifugation (to separate the phases), the organic phase is recovered. The organic phase is evaporated to dryness and then the residue is taken up with 0.5 ml of chloroform. The organic extracts are filtered on 0.5 ml silica cartridges. The polar sterols are eluted sequentially:
1) 0.5 ml of a hexane/chloroform mixture (1/1), 2) 0.5 ml of chloroform, 3) 0.5 ml of ethyl acetate and methanol.
The ethyl acetate fractions are evaporated, silylated (50 μl 1/1 acetonitrile/BSTFA) and then analyzed by GC/MS (2 μl) according to the conditions described above.

TT cells [3] = experiment: Effect of OCDO on TT cell proliferation in vitro; type: cell-based, human; conditions: 5 μM OCDO, 4 days of treatment, versus solvent
Experimental: (§1) a) In this example 2, the human medullary thyroid carcinoma cell line TT (American Tissues and Cells Collection) was used. This line is cultured in an F12K medium modified by Kaighn (sold by the company Invitrogen), containing 10% by weight of fetal calf serum and 2.5 ml of a solution of antibiotics (penicillin/streptomycin) at […]. The OCDO tested comes from the company Steraloids. In order to study in vitro the effect of OCDO on cell growth, the TT cells are seeded on to six-well plates (200 000 cells per well) in an F12K medium as defined above. The TT cells are treated every two days either with a solvent (ethanol at 0.1% in PBS phosphate buffer) or with amounts of OCDO in the solvent resulting in concentrations of 0.1, 1, 2.5 or 5 μM. The cells are counted 4 days after seeding. […] At the OCDO concentration of 5 μM, a proliferation induction factor of 1.5 is measured after 4 days of treatment; the induction of proliferation is therefore established in vitro for OCDO concentrations of between 100 nM and 5 μM. […] The animals (5 or 10 mice per group) are monitored regularly in order to measure tumor development. The volume of the tumors is calculated according to the formula L×l^2×0.5, where L is the length and l is the width of the tumor. […]

TT cells [4] = experiment: Effect of OCDO on TT tumors implanted in Swiss nude mice; type: in vivo
Experimental: as §1
The animals were euthanized after 75 days of treatment and the tumor and the various organs were removed in order to be analyzed histologically. […]

IL10 = IL10 gene expression in THP1 cells treated with OCDO; type: cell-based, human; conditions: 10 μM OCDO, 4 hours
Experimental: (§2) The THP1 cells (human myeloid cell line supplied by ATCC) are cultured with a culture medium of DMEM type (Dulbecco's modified eagle medium) supplemented with 10% of fetal calf serum and a mixture of antibiotics. The THP1 cells are treated with 10 μM of OCDO for 4 hours. The RNAs are extracted according to a conventional procedure. The complementary DNAs are produced, and then used to measure the expression of the genes of interest. The expression of the genes encoding interleukin 12 (IL12) and interleukin 10 (IL10) were studied, these interleukins representing a pair of cytokines with antagonistic properties. IL12 is an immunostimulatory cytokine, whereas IL10 is an immunosuppressive cytokine. The expression ratio of these two cytokines makes it possible to evaluate the immunosuppressor or immunostimulatory potential of the cell and its ability to promote tumor progression or, on the contrary, to slow it down.
(§3) The primers used correspond to the human sequences of IL10 and of IL12 and are the following: […]

IL12 = IL12 gene expression in THP1 cells treated with OCDO; type: cell-based, human; conditions: 10 μM OCDO, 4 hours
Experimental: as §2, §3

[5] = system: T lymphocytes originating from human serum; conditions: concentrations between 1 and 20 μM; cited from earlier work
leukocyte = conditions: concentrations between 1 and 20 μM; cited from earlier work
NK cell = conditions: concentrations between 1 and 20 μM; cited from earlier work
T lymphocytes = conditions: concentrations between 1 and 20 μM; cited from earlier work
[6] = system: phorbol ester-binding protein; conditions: cited from earlier work

SMILES	% OCDO (MCF7 cells; MCF7 cells, [14C]CEα, three days, concentration given with each compound, share of labeled oxysterols) [%]	OCDO production by MCF-7 (% control) (MCF7 cells; concentration in μM in parentheses after each molecule, control = 100)	inhibition of the ChEH activity (3 days) in MCF7 cells (ChEH [1])	formation of CT from [14C]CEα in healthy mouse tissue cells (ChEH [2])	Tumor size (% control) (TS/A cells; Day 28)	Tumor size (% control) (TS/A cells; Day 37)	tumor mass (TS/A cells; tumor removed on day 28 from one treated animal, control animal tumor 2 g) [g]	OCDO (% control) (OCDO; Day 28)	OCDO (% control) (OCDO; Day 37)	proliferation induction factor (TT cells [3])	tumor volume versus control animals treated with the solvent (TT cells [4]; OCDO 50 μg/kg subcutaneously once a day, 5 days out of 7)	invasion of the lymph nodes versus solvent (TT cells [4]; OCDO 50 μg/kg, after 75 days of treatment)	expression of the immunosuppressive cytokine IL10 (IL10)	expression of the cytokine IL12 (IL12)	rosette formation by T lymphocytes [5]	leukocyte mobility (leukocyte)	NK cell toxicity in mice (NK cell)	cytolytic activity produced by T lymphocytes in mice (T lymphocytes)	binding to a phorbol ester-binding protein [6]
CC/C(=C(\c1ccccc1)c1ccc(OCCN(C)C)cc1)c1ccccc1 [Tamoxifen, 2-[4-[(Z)-1,2-di(phenyl)but-1-enyl]phenoxy]-N,N-dimethylethanamine]	6.9	<1	Dose-dependent inhibition	the CT compound no longer appears	73.5 ± 8	46.2 ± 7	1.45	19.2 ± 4	8.4 ± 4	–	–	–	–	–	–	–	–	–	–
CC(C)CCC[C@@H](C)[C@H]1CC[C@H]2[C@@H]3CC(=O)[C@@]4(O)C[C@@H](O)CC[C@]4(C)[C@H]3CC[C@]12C [OCDO, 6-oxo-cholestane-3β,5α-diol]	–	–	–	–	–	–	–	–	–	1.5	almost three times larger	Twice as much invasion of the lymph nodes	stimulates the expression	reduces the expression	inhibit rosette formation by T lymphocytes	inhibit leukocyte mobility	induce NK cell toxicity	inhibit the cytolytic activity produced by T lymphocytes	binds to a phorbol ester-binding protein
